# Experiments:
# [1] = system: mouse; settings: Carcinogenicity, b6c3f1, Oral, Gavage/Intubation, dose end: 91 week, group: systemic
# [2] = system: rat; settings: Carcinogenicity; other; Oral; Feed; dose end: 78 week; group: systemic; systemic / in life observation / clinical signs / abdominogenital staining + systemic / in life observation / clinical signs / fur (altered …
# [3] = system: rat; settings: Multigenerational reproductive toxicity study; sprague dawley; Oral; Water; dose end: 1 generation; group: reproductive; reproductive / offspring survival early / litter size / litter size + reproductive / offspring survival early / live fetuses / live fetuses
# [4] = system: rat; settings: Combined chronic toxicity/carcinogenicity; wistar; Oral; Feed; dose end: 2 year; group: systemic; systemic / in life observation / clinical signs / aggressive behavior + systemic / in life observation / clinical signs / excitation + …
# [5] = system: dog; settings: Chronic toxicity; beagle; Oral; Capsule; dose end: 104 PND; group: systemic; systemic / in life observation / clinical signs / [other]
# [6] = system: mouse; settings: Carcinogenicity; b6c3f1; Oral; Feed; dose end: 104 week; group: systemic; systemic / pathology microscopic / spleen / hematopoietic cell proliferation + systemic / pathology microscopic / stomach / hyperkeratosis
# [7] = system: rat; settings: Subchronic oral toxicity in rodents, sprague dawley, Gavage/Intubation, dose end: 90 day, group: systemic
# [8] = system: mouse; settings: Carcinogenicity, b6c3f1, Oral, Feed, dose end: 103 week, group: systemic
# [9] = system: mouse; settings: Subchronic oral toxicity in rodents, b6c3f1, Feed, dose end: 13 week, group: systemic
# [10] = system: rat; settings: Subchronic oral toxicity in rodents, fischer, Feed, dose end: 13 week, group: systemic
# [11] = system: rat; settings: Carcinogenicity, fischer, Oral, Feed, dose end: 103 week, group: systemic
# [12] = system: rat; settings: Subchronic oral toxicity in rodents, sprague dawley, Feed, dose end: 90 day, group: systemic
# [13] = system: dog; settings: Chronic toxicity, beagle, Oral, Feed, dose end: 52 week, group: systemic
# [14] = system: rat; settings: Combined chronic toxicity/carcinogenicity, sprague dawley, Oral, Feed, dose end: 24 month, group: systemic
# [15] = system: mouse; settings: Carcinogenicity, cd1, Oral, Feed, dose end: 18 month, group: systemic
# [16] = system: rat; settings: Prenatal developmental toxicity study, sprague dawley, Oral, Gavage/Intubation, dose end: 15 GD
# [17] = system: mouse; settings: Carcinogenicity, b6c3f1, Oral, Water, dose end: 96 week, group: systemic
# [18] = system: mouse; settings: Subchronic oral toxicity in rodents, b6c3f1, Water, dose end: 10 week, group: systemic
# [19] = system: mouse; settings: Subchronic oral toxicity in rodents, b6c3f1, Gavage/Intubation, dose end: 16 week, group: systemic
# [20] = system: mouse; settings: Carcinogenicity, b6c3f1, Oral, Gavage/Intubation, dose end: 2 year, group: systemic
# [21] = system: rat; settings: Subchronic oral toxicity in rodents, fischer, Gavage/Intubation, dose end: 16 week
# [22] = system: rat; settings: Carcinogenicity, fischer, Oral, Gavage/Intubation, dose end: 2 year, group: systemic
# [23] = systemic / pathology microscopic / adrenal gland / pheochromocytoma nos + systemic / pathology microscopic / liver / carcinoma + systemic / …
# [24] = systemic / pathology microscopic / liver / carcinoma + systemic / in life observation / mortality / mortality + systemic / in life …
# [25] = systemic / clinical chemistry / creatinine / creatinine + systemic / clinical chemistry / phosphorus / phosphorus + systemic / clinical …
# [26] = systemic / in life observation / clinical signs / general pallor + systemic / in life observation / clinical signs / lethargy + systemic / …
# [27] = systemic / in life observation / body weight / body weight
# [28] = systemic / in life observation / body weight / body weight + systemic / in life observation / clinical signs / [other] + systemic / in life …
# [29] = systemic / in life observation / clinical signs / ocular discharge + systemic / in life observation / clinical signs / aggressive behavior…
# [30] = systemic / pathology microscopic / kidney / karyomegaly
# [31] = systemic / in life observation / food consumption / food consumption + systemic / organ weight / liver / absolute
# [32] = systemic / in life observation / body weight / body weight + systemic / in life observation / clinical signs / aggressive behavior + …
# [33] = systemic / pathology microscopic / spleen / hyperplasia + systemic / clinical chemistry / calcium / calcium + systemic / clinical chemistry…
# [34] = systemic / in life observation / clinical signs / ataxia + systemic / pathology microscopic / brain / vacuolization
# [35] = systemic / in life observation / clinical signs / ataxia + systemic / pathology microscopic / brain / vacuolization + systemic / in life …
# [36] = systemic / clinical chemistry / gamma glutamyl transferase (ggt) / gamma glutamyl transferase (ggt)
# [37] = systemic / pathology microscopic / nerve / degeneration + systemic / pathology microscopic / spinal cord / degeneration + systemic / …
# [38] = group: developmental, developmental / developmental malformation / bone / enlarged fontanel + developmental / developmental malformation / bone / incomplete …
# [39] = group: maternal, systemic / in life observation / body weight / body weight gain
# [40] = systemic / organ weight / brain / relative to body weight
# [41] = systemic / organ weight / brain / relative to body weight + systemic / organ weight / heart / relative to body weight + systemic / organ …
# [42] = systemic / in life observation / mortality / mortality + systemic / pathology microscopic / kidney / degeneration + systemic / pathology …
# [43] = systemic / pathology microscopic / kidney / cytomegaly + systemic / pathology microscopic / kidney / karyomegaly + systemic / organ weight…
# [44] = systemic / pathology microscopic / kidney / karyomegaly + systemic / pathology microscopic / harderian gland / adenoma
# [45] = group: cholinesterase, cholinesterase / cholinesterase / cholinesterase / cholinesterase (che)
# [46] = group: systemic, systemic / organ weight / kidney / absolute + systemic / organ weight / kidney / relative to body weight + systemic / organ weight / liver…
# [47] = systemic / pathology microscopic / brain / degeneration + systemic / clinical chemistry / alanine aminotransferase (alt/sgpt) / alanine …
# [48] = systemic / pathology microscopic / brain / degeneration + systemic / pathology microscopic / brain / necrosis + systemic / pathology …
smiles,measurement,setting,value
"ClCC(Cl)Cl [1,1,2-Trichloroethane]",LOAEL,[1]; [23],> 390 mg/kg/day
same,NOAEL,[1]; [23],≥ 390 mg/kg/day
same,LEL,[1]; [24],195 mg/kg/day
same,NEL,[1]; [24],< 195 mg/kg/day
same,LEL,[2],46 mg/kg/day
same,LOAEL,[2],> 92 mg/kg/day
same,NEL,[2],< 46 mg/kg/day
same,NOAEL,[2],≥ 92 mg/kg/day
Oc1ccccc1Cl [2-Chlorophenol],LEL,[3],25 mg/kg/day
same,LOAEL,[3],> 25 mg/kg/day
same,NEL,[3],2.5 mg/kg/day
same,NOAEL,[3],≥ 25 mg/kg/day
Cc1ccc(N=CN(C)C=Nc2ccc(C)cc2C)c(C)c1 [Amitraz],LEL,[4],3.13 mg/kg/day
same,LOAEL,[4],3.13 mg/kg/day
same,NEL,[4],0.97 mg/kg/day
same,NOAEL,[4],0.97 mg/kg/day
same,LEL,[5],1 mg/kg/day
same,LOAEL,[5],1 mg/kg/day
same,NEL,[5],0.25 mg/kg/day
same,NOAEL,[5],0.25 mg/kg/day
same,LEL,[6],2.31 mg/kg/day
same,LOAEL,[6],2.31 mg/kg/day
same,NEL,[6],< 2.31 mg/kg/day
same,NOAEL,[6],< 2.31 mg/kg/day
O=c1c(C2CC(c3ccc(-c4ccc(Br)cc4)cc3)Cc3ccccc32)c(O)sc2ccccc12 (stereo unspecified) [Difethialone],LEL,[7]; [25],0.002 mg/kg/day
same,NEL,[7]; [25],< 0.002 mg/kg/day
same,LOAEL,[7]; [26],0.008 mg/kg/day
same,NOAEL,[7]; [26],0.004 mg/kg/day
C[C@](N)(Cc1ccc(O)c(O)c1)C(=O)O.C[C@](N)(Cc1ccc(O)c(O)c1)C(=O)O.O.O.O [Methyldopa sesquihydrate],LOAEL,[8]; [27],830 mg/kg/day
same,NOAEL,[8]; [27],< 830 mg/kg/day
same,LEL,[8]; [28],830 mg/kg/day
same,NEL,[8]; [28],< 830 mg/kg/day
same,LEL,[9]; [29],465 mg/kg/day
same,NEL,[9]; [29],< 465 mg/kg/day
same,LOAEL,[9]; [30],1880 mg/kg/day
same,NOAEL,[9]; systemic / pathology microscopic / kidney / karyomegaly + systemic / in life observation / body weight / body weight + systemic / in life …,945 mg/kg/day
same,LEL,[10]; [31],155 mg/kg/day
same,NEL,[10]; [31],< 155 mg/kg/day
same,LOAEL,[10]; systemic / pathology microscopic / kidney / regeneration + systemic / in life observation / body weight / body weight,625 mg/kg/day
same,NOAEL,[10]; systemic / pathology microscopic / kidney / regeneration + systemic / in life observation / body weight / body weight + systemic / in life …,315 mg/kg/day
same,LOAEL,[11]; [27],110 mg/kg/day
same,NOAEL,[11]; [27],< 110 mg/kg/day
same,LEL,[11]; [32],110 mg/kg/day
same,NEL,[11]; [32],< 110 mg/kg/day
Cc1cc(C)nc(NC(=O)NS(=O)(=O)c2ccccc2C(=O)OC2COC2)n1 [Oxasulfuron],LEL,[12]; systemic / clinical chemistry / chloride / chloride + systemic / clinical chemistry / cholesterol / cholesterol,15.3 mg/kg/day
same,LOAEL,[12]; systemic / pathology microscopic / spleen / hyperplasia,316 mg/kg/day
same,NEL,[12]; [33],0.62 mg/kg/day
same,NOAEL,[12]; [33],15.3 mg/kg/day
same,LEL,[13]; [34],10.7 mg/kg/day
same,LOAEL,[13]; [34],10.7 mg/kg/day
same,NEL,[13]; [35],1.3 mg/kg/day
same,NOAEL,[13]; [35],1.3 mg/kg/day
same,LEL,[14]; [36],0.84 mg/kg/day
same,LOAEL,[14]; [36],83 mg/kg/day
same,NEL,[14]; [36],< 0.84 mg/kg/day
same,NOAEL,[14]; systemic / clinical chemistry / gamma glutamyl transferase (ggt) / gamma glutamyl transferase (ggt) + systemic / pathology microscopic / …,8.3 mg/kg/day
same,LOAEL,[15]; systemic / pathology microscopic / nerve / degeneration + systemic / pathology microscopic / spinal cord / degeneration,99.1 mg/kg/day
same,LEL,[15]; systemic / pathology microscopic / nerve / degeneration + systemic / pathology microscopic / spinal cord / degeneration + systemic / organ …,99.1 mg/kg/day
same,NEL,[15]; [37],1.5 mg/kg/day
same,NOAEL,[15]; [37],1.5 mg/kg/day
same,LEL,[16]; [38],1000 mg/kg/day
same,LOAEL,[16]; [38],1000 mg/kg/day
same,NEL,[16]; [38],300 mg/kg/day
same,NOAEL,[16]; [38],300 mg/kg/day
same,LEL,[16]; [39],1000 mg/kg/day
same,LOAEL,[16]; [39],1000 mg/kg/day
same,NEL,[16]; [39],300 mg/kg/day
same,NOAEL,[16]; [39],300 mg/kg/day
O=C1O[C@H]([C@H](O)CO)C([O-])=C1O.[Na+] [Sodium erythorbate (1:1)],LEL,[17]; [40],1670 mg/kg/day
same,NEL,[17]; [40],< 1670 mg/kg/day
same,LOAEL,[17]; [41],> 6670 mg/kg/day
same,NOAEL,[17]; [41],≥ 6670 mg/kg/day
same,NEL,[18]; systemic / in life observation / body weight / body weight gain + systemic / in life observation / mortality / mortality + systemic / …,3330 mg/kg/day
same,LEL,[18]; systemic / in life observation / body weight / body weight gain + systemic / pathology microscopic / kidney / degeneration + systemic / …,6670 mg/kg/day
same,LOAEL,[18]; [42],> 13300 mg/kg/day
same,NOAEL,[18]; [42],≥ 13300 mg/kg/day
O=P(OCCCl)(OCCCl)OCCCl [Tris(2-chloroethyl) phosphate],LEL,[19]; systemic / organ weight / liver / absolute + systemic / organ weight / liver / relative to body weight + systemic / organ weight / kidney / …,175 mg/kg/day
same,LOAEL,[19]; systemic / pathology microscopic / kidney / cytomegaly + systemic / pathology microscopic / kidney / karyomegaly,700 mg/kg/day
same,NEL,[19]; [43],88 mg/kg/day
same,NOAEL,[19]; [43],350 mg/kg/day
same,LOAEL,[20]; [30],175 mg/kg/day
same,NOAEL,[20]; [30],< 175 mg/kg/day
same,LEL,[20]; [44],175 mg/kg/day
same,NEL,[20]; [44],< 175 mg/kg/day
same,LEL,[21]; [45],175 mg/kg/day
same,LOAEL,[21]; [45],175 mg/kg/day
same,NEL,[21]; [45],88 mg/kg/day
same,NOAEL,[21]; [45],88 mg/kg/day
same,LOAEL,"[21]; group: systemic, systemic / in life observation / clinical signs / hyperactivity + systemic / pathology microscopic / brain / necrosis",175 mg/kg/day
same,LEL,[21]; [46],44 mg/kg/day
same,NEL,[21]; [46],22 mg/kg/day
same,NOAEL,[21]; [46],88 mg/kg/day
same,NEL,[22]; [47],44 mg/kg/day
same,NOAEL,[22]; [47],44 mg/kg/day
same,LEL,[22]; [48],88 mg/kg/day
same,LOAEL,[22]; [48],88 mg/kg/day
